We go through 20 molecules from patent publication US12098148B2, “Therapeutic compounds” (C4X Discovery Limited, priority 2018, dated 2024).

The structures appear in SMILES notation.

The term EC50 denotes the concentration that produces a half-maximal response. For orientation: IC50 means the concentration at which inhibition is half-maximal.

Assay [1] deals with NQO1 mRNA in BEAS-2B cells. Description: Beas2B NQO1 mRNA cell based assay. The arrangement: species or system human. The settings on record: Homo sapiens, BEAS-2B, 24 h, 24 h compound treatment, increase in NQO1 mRNA vs vehicle (0.1% DMSO), read-out: EC50. In short, it runs like this:
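BEAS-2B human bronchial epithelial cells exposed to compound for 24 h at 37 °C, 5% CO2. NQO1 mRNA measured by one-step TaqMan RT-qPCR on unpurified lysates, normalized to β-actin; relative expression by ΔΔCT method.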

Assay [2] addresses human KEAP1 (N-term, residues 321-609) (Homo sapiens, UniProt Q14145). Description: biochemical.
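Throughout, for IC50: fluorescence polarization competition assay of Kelch domain binding to NRF2, 12-point 1:3 dilution series from 10 µM, read after 1 h at room temperature, floor 10 nM.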

Chain of human KEAP1 (N-term, residues 321-609) (Q14145 321-609): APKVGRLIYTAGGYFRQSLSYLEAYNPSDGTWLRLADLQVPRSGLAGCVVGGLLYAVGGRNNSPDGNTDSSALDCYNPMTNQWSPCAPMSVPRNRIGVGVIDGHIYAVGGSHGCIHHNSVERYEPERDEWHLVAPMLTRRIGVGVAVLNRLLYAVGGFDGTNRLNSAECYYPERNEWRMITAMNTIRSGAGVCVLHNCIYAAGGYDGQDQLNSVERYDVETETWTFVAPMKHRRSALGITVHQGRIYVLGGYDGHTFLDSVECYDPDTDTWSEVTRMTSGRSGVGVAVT

For the molecule `Cc1nnc(COc2ccc(Br)c3c2[C@@H](CN2Cc4ccccc4C2=O)N(C(=O)[C@@H]2CCCC[C@@H]2C(=O)O)CC3)o1` [Example 36, (1S,2R)-2-((S)-5-bromo-8-((5-methyl-1,3,4-oxadiazol-2-yl)methoxy)-1-((1-oxoisoindolin-2-yl)methyl)-1,2,3,4-tetrahydroisoquinoline-2-carbonyl)cyclohexane-1-carboxylic acid], the EC50 in assay [1] was 130 nM. The same molecule came in with an IC50 in assay [2] of 11 nM.
Take `Cn1nnc(COc2ccc(Cl)c3c2[C@@H](CN2CC4(CC4)CC2=O)N(C(=O)[C@@H]2C[C@@H](F)CC[C@]2(C)C(=O)O)CC3)c1C(F)F` [Example 218, (1S,2R,4S)-2-((S)-5-chloro-8-((5-(difluoromethyl)-1-methyl-1H-1,2,3-triazol-4-yl)methoxy)-1-((6-oxo-5-azaspiro[2.4]heptan-5-yl)methyl)-1,2,3,4-tetrahydroisoquinoline-2-carbonyl)-4-fluoro-1-methylcyclohexane-1-carboxylic acid]: the 50% effective concentration (EC50) in assay [1] was determined as 0.98 nM. The IC50 in assay [2] stood at 6.8 nM.
For `C[C@]1(C(=O)O)CCCC[C@H]1C(=O)N1CCc2c(Cl)ccc(OCc3nnc4n3CCCC4)c2[C@H]1CN1CC2(CC2)CC1=O` [Example 186, (1S,2R)-2-((S)-5-chloro-1-((6-oxo-5-azaspiro[2.4]heptan-5-yl)methyl)-8-((5,6,7,8-tetrahydro-[1,2,4]triazolo[4,3-a]pyridin-3-yl)methoxy)-1,2,3,4-tetrahydroisoquinoline-2-carbonyl)-1-methylcyclohexane-1-carboxylic acid] the same measures were 4.7 nM and 5.6 nM.
Regarding `Cn1cnc(COc2ccc(Cl)c3c2[C@@H](CN2Cc4ccccc4C2=O)N(C(=O)[C@@H]2CCCC[C@@H]2C(=O)O)CC3)c1C(F)F` [Example 56, (1S,2R)-2-((S)-5-Chloro-8-((5-(difluoromethyl)-1-methyl-1H-imidazol-4-yl)methoxy)-1-((1-oxoisoindolin-2-yl)methyl)-1,2,3,4-tetrahydroisoquinoline-2-carbonyl)cyclohexane-1-carboxylic acid], the EC50 in assay [1] is 4.8 nM. The molecule further registered an IC50 in assay [2] of 4.2 nM.
Consider `C[C@@H]1CC(=O)N(C[C@@H]2c3c(OCc4nnn(C)c4C4CC4)ccc(Cl)c3CCN2C(=O)[C@@H]2CCCC[C@]2(C)C(=O)O)C1` [Example 163, (1S,2R)-2-((S)-5-chloro-8-((5-cyclopropyl-1-methyl-1H-1,2,3-triazol-4-yl)methoxy)-1-(((R)-4-methyl-2-oxopyrrolidin-1-yl)methyl)-1,2,3,4-tetrahydroisoquinoline-2-carbonyl)-1-methylcyclohexane-1-carboxylic acid], for which the EC50 in assay [1] stood at 0.78 nM. Further, in assay [2], 5.3 nM corresponded to half-maximal inhibition (IC50).
On to `Cn1nnc(COc2ccc(Cl)c3c2[C@@H](CN2CC(C(F)(F)F)CC2=O)N(C(=O)[C@@H]2CCCC[C@]2(C)C(=O)O)CC3)c1C(F)F` (single isomer, unassigned) [Example 212], for which the EC50 in assay [1] amounted to 1.9 nM. In assay [2], this molecule gave an IC50 of 5.7 nM.
Consider `CCn1nnc(COc2ccc(Cl)c3c2[C@@H](CN2CCCC2=O)N(C(=O)[C@@H]2CCC[C@]2(C)C(=O)O)CC3)c1C(F)F` [Example 119, (1S,2R)-2-((S)-5-chloro-8-((5-(difluoromethyl)-1-ethyl-1H-1,2,3-triazol-4-yl)methoxy)-1-((2-oxopyrrolidin-1-yl)methyl)-1,2,3,4-tetrahydroisoquinoline-2-carbonyl)-1-methylcyclopentane-1-carboxylic acid], for which, in assay [1], the EC50 was found to be 18 nM. Further, the IC50 in assay [2] came out at 8.1 nM.
For `Cn1nnc(COc2ccc(Cl)c3c2[C@@H](CN2CCCC2=O)N(C(=O)[C@H]2CCC[C@H]2C(=O)O)CC3)c1C(F)F` [Example 87, (1R,2S)-2-((S)-5-Chloro-8-((5-(difluoromethyl)-1-methyl-1H-1,2,3-triazol-4-yl)methoxy)-1-((2-oxopyrrolidin-1-yl)methyl)-1,2,3,4-tetrahydroisoquinoline-2-carbonyl)cyclopentane-1-carboxylic acid], the EC50 in assay [1] is 300 nM. In assay [2], this molecule registered an IC50 of 150 nM.
For the molecule `C[C@]1(C(=O)O)CCCC[C@H]1C(=O)N1CCc2c(Cl)ccc(O[C@H]3CCN(S(C)(=O)=O)C3)c2[C@H]1CN1CC2(CC2)CC1=O` [Example 187, (1S,2R)-2-((S)-5-chloro-8-(((S)-1-(methylsulfonyl)pyrrolidin-3-yl)oxy)-1-((6-oxo-5-azaspiro[2.4]heptan-5-yl)methyl)-1,2,3,4-tetrahydroisoquinoline-2-carbonyl)-1-methylcyclohexane-1-carboxylic acid], in assay [1], the EC50 is 43 nM. The same molecule had an IC50 in assay [2] of 6 nM.
Take `O=C(O)[C@H]1CCCC[C@H]1C(=O)N1CCc2c(Cl)ccc(OCc3ccccn3)c2[C@H]1CN1CCCC1=O` [Example 69, (1S,2R)-2-((S)-5-chloro-1-((2-oxopyrrolidin-1-yl)methyl)-8-(pyridin-2-ylmethoxy)-1,2,3,4-tetrahydroisoquinoline-2-carbonyl) cyclohexane-1-carboxylic acid]: in assay [1], the concentration giving a half-maximal response (EC50) was determined as 140 nM. Moreover, in assay [2], the IC50 came out at 6.9 nM.
For `O=C(O)[C@H]1CCCC[C@H]1C(=O)N1CCc2c(Br)ccc(OCc3ccn4ccnc4c3)c2[C@H]1CN1Cc2ccccc2C1=O` [Example 32], the half-maximal effective concentration (EC50) in assay [1] amounted to 75 nM. Further, in assay [2], the IC50 was 6 nM.
In the case of `Cn1nnc(COc2ccc(Br)c3c2[C@@H](CN2CCCC2=O)N(C(=O)[C@@H]2CCCC[C@]2(C)C(=O)O)CC3)c1C(F)(F)F` [Example 191, (1S,2R)-2-((S)-5-bromo-8-((1-methyl-5-(trifluoromethyl)-1H-1,2,3-triazol-4-yl)methoxy)-1-((2-oxopyrrolidin-1-yl)methyl)-1,2,3,4-tetrahydroisoquinoline-2-carbonyl)-1-methylcyclohexane-1-carboxylic acid], in assay [1], the EC50 was 2.1 nM. The molecule also showed an IC50 in assay [2] of 5.2 nM.
As for `O=C(O)[C@H]1CCCC[C@H]1C(=O)N1CCc2c(Br)ccc(OCc3cccnn3)c2[C@H]1CN1Cc2ccccc2C1=O` [Example 30], in assay [1], the EC50 amounted to 17 nM. The molecule also registered an IC50 in assay [2] of 9.2 nM.
Turning to `C[C@]1(C(=O)O)CCCC[C@H]1C(=O)N1CCc2c(Cl)ccc(OCc3nnn4c3COCC4)c2[C@H]1CN1CC2(CC2)CC1=O` [Example 189, (1S,2R)-2-((S)-5-chloro-8-((6,7-dihydro-4H-[1,2,3]triazolo[5,1-c][1,4]oxazin-3-yl)methoxy)-1-((6-oxo-5-azaspiro[2.4]heptan-5-yl)methyl)-1,2,3,4-tetrahydroisoquinoline-2-carbonyl)-1-methylcyclohexane-1-carboxylic acid], in assay [1], the EC50 is 0.27 nM. For the same molecule, in assay [2], the IC50 was determined as 5 nM.
Consider `CC[C@]1(C(=O)O)CCCC[C@H]1C(=O)N1CCc2c(Cl)ccc(OCc3nnn(C)c3C(F)F)c2[C@H]1CN1CCCC1=O` [Example 117, (1S,2R)-2-((S)-5-chloro-8-((5-(difluoromethyl)-1-methyl-1H-1,2,3-triazol-4-yl)methoxy)-1-((2-oxopyrrolidin-1-yl)methyl)-1,2,3,4-tetrahydroisoquinoline-2-carbonyl)-1-ethylcyclohexane-1-carboxylic acid], for which the concentration for a half-maximal effect (EC50) in assay [1] came out at 37 nM. The molecule also gave an IC50 in assay [2] of 8.2 nM.
For `O=C(O)[C@H]1CCCC[C@H]1C(=O)N1CCc2c(Br)ccc(OCc3cn(CC4CC4)nn3)c2[C@H]1CN1Cc2ccccc2C1=O` [Example 31, (1S,2R)-2-((S)-5-bromo-8-((1-(cyclopropylmethyl)-1 1,2,3-triazol-4-yl)methoxy)-1-((1-oxoisoindolin-2-yl)methyl)-1,2,3,4-tetrahydroisoquinoline-2-carbonyl)cyclohexane-1-carboxylic acid], in that order: 8.5 nM and 4.5 nM.
`Cn1nnc2cc(COc3ccc(Cl)c4c3[C@@H](CN3CCCC3=O)N(C(=O)[C@@H]3CCCC[C@@H]3C(=O)O)CC4)ccc21` [Example 90, (1S,2R)-2-((S)-5-Chloro-8-((1-methyl-1H-benzo [d][1,2,3]triazol-5-yl)methoxy)-1-((2-oxopyrrolidin-1-yl)methyl)-1,2,3,4-tetrahydroisoquinoline-2-carbonyl)cyclohexane-1-carboxylic acid]: the concentration for a half-maximal effect (EC50) in assay [1] was determined as 8.1 nM. For the same molecule, the midpoint of inhibition in assay [2], the IC50, lay at 9.1 nM.
In the case of `C[C@]1(C(=O)O)CCCC[C@H]1C(=O)N1CCc2c(Cl)ccc(OCc3nnc4n3CCC4)c2[C@H]1CN1CC2(CC2)CC1=O` [Example 183, (1S,2R)-2-((S)-5-chloro-8-((6,7-dihydro-5H-pyrrolo[2,1-c][1,2,4]triazol-3-yl)methoxy)-1-((6-oxo-5-azaspiro [2.4]heptan-5-yl)methyl)-1,2,3,4-tetrahydroisoquinoline-2-carbonyl)-1-methylcyclohexane-1-carboxylic acid], the EC50 in assay [1] stood at 5.8 nM. Besides, the half-maximal inhibitory concentration (IC50) in assay [2] was 5.4 nM.
As for `Cn1nnc(COc2ccc(Cl)c3c2[C@@H](CN2CCCC2=O)N(C(=O)C2C4CCC(C4)C2C(=O)O)CC3)c1C(F)F` (stereo partly drawn) [Example 96, 3-((S)-5-Chloro-8-((5-(difluoromethyl)-1-methyl-1H-1,2,3-triazol-4-yl)methoxy)-1-((2-oxopyrrolidin-1-yl)methyl)-1,2,3,4-tetrahydroisoquinoline-2-carbonyl)bicyclo[2.2.1]heptane-2-carboxylic acid], the EC50 in assay [1] was 210 nM. For the same molecule, the midpoint of inhibition in assay [2], the IC50, lay at 18 nM.
Take `Cc1onc(COc2ccc(Cl)c3c2[C@@H](CN2CC4(CC4)CC2=O)N(C(=O)[C@@H]2CCCC[C@]2(C)C(=O)O)CC3)c1C(F)(F)F` [Example 154, (1S,2R)-2-((S)-5-chloro-8-((5-methyl-4-(trifluoromethyl)isoxazol-3-yl)methoxy)-1-((6-oxo-5-azaspiro[2.4]heptan-5-yl)methyl)-1,2,3,4-tetrahydroisoquinoline-2-carbonyl)-1-methylcyclohexane-1-carboxylic acid]: the concentration for a half-maximal effect (EC50) in assay [1] is 18 nM. This molecule showed an IC50 in assay [2] of 9.3 nM.
